Data taken from patent US20250163104A1, “MACROCYCLIC IMMUNOMODULATORS” (priority 2021, published 2025).
Where a SMILES comes first, the peptide text is derived from it. Bridges are numbered along the chain shown (N, C = ends). [ ]: non-standard residue; d: D form. The star is where a group is joined. ξ: configuration not given here. Phe(4-COOH) = N[C@@H](Cc1ccc(C(=O)O)cc1)C(=O)O; Bip = N[C@@H](Cc1ccc(-c2ccccc2)cc1)C(=O)O; Phe(3-Me) = Cc1cccc(C[C@H](N)C(=O)O)c1; h4Pal = N[C@@H](CCc1ccncc1)C(=O)O; aIle = CC[C@@H](C)[C@H](N)C(=O)O; Cha = N[C@@H](CC1CCCCC1)C(=O)O; Cit = NC(=O)NCCC[C@H](N)C(=O)O; Ile(3ξ) = CCC(C)[C@H](N)C(=O)O; Thr(3ξ) = CC(O)[C@H](N)C(=O)O; Carboxymethyl = O=C(O)C*; Nle = CCCC[C@H](N)C(=O)O; Orn = NCCC[C@H](N)C(=O)O; Pra = C#CC[C@H](N)C(=O)O; Dab = NCC[C@H](N)C(=O)O; Nva = CCC[C@H](N)C(=O)O; Dap = NC[C@H](N)C(=O)O

target: T1, human PD-1 / PD-L1-Ig binding on Jurkat cell line over-expressing human PD-1 (Jurkat-PD-1) (Homo sapiens, UniProt Q15116); test: Jurkat-PD-1 Cell Binding High-Content Screening Assay (CBA); assay type: cell-based; details: Jurkat HPD1_PDL1 IC50, Jurkat-PD-1 cells, PE-labeled PD-L1-Ig 20 nM final
T1 construct: expressed in transfected cells; host or cells: Jurkat
Method in brief: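 Cell-bound PE-labeled PD-L1-Ig (20 nM final, 1 h) measured by high-content imaging after fixation and Hoechst 33342 counterstain. Compound was applied first for 2 h at 37° C. to Jurkat cells over-expressing human PD-1 in DMEM with 10% FCS.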

T1 sequence (Q15116 25-288): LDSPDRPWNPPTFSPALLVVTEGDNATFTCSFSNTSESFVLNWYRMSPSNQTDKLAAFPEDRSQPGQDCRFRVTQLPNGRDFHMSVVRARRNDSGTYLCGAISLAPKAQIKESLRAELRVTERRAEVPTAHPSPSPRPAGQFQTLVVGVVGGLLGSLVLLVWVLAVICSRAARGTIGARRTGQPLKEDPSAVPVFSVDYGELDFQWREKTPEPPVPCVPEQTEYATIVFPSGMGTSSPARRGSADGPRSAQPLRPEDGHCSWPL

`CC(C)C[C@H]1NC(=O)[C@H](CCCN)NC(=O)[C@H](CCCNC(N)=O)NC(=O)[C@H](Cc2ccc(-c3ccccc3)cc2)NC(=O)[C@H](C(C)C)NC(=O)[C@H](Cc2c[nH]c3ccccc23)NC(=O)[C@H](CC(=O)O)NC(=O)[C@H](Cc2ccc(OCC(=O)O)cc2)NC(=O)[C@H](Cc2ccncc2)NC(=O)CSC[C@@H](C(=O)N[C@@H](C)C(N)=O)NC(=O)[C@H]([C@@H](C)O)NC(=O)[C@H](C(C)C)NC(=O)[C@H](CC2CCCCC2)NC(=O)[C@H](Cc2c[nH]cn2)NC1=O` [Compound 1610] and `CC(C)C[C@H]1NC(=O)[C@H](CCCN)NC(=O)[C@H](CCC(=O)O)NC(=O)[C@H](Cc2ccc(-c3ccccc3)cc2)NC(=O)[C@H](C(C)C)NC(=O)[C@H](Cc2c[nH]c3ccccc23)NC(=O)[C@H](CC(=O)O)NC(=O)[C@H](Cc2ccncc2)NC(=O)[C@H](Cc2ccc(OCC(=O)O)cc2)NC(=O)CSC[C@@H](C(=O)N[C@@H](C)C(N)=O)NC(=O)[C@H]([C@@H](C)O)NC(=O)[C@H](C(C)C)NC(=O)[C@H](CC2CCCCC2)NC(=O)[C@H](Cc2c[nH]cn2)NC1=O` [Compound 1605] are within 1.5-fold of each other in IC50: 21.5 nM for the first, 23.1 nM for the second.

same assay, conditions: Jurkat-PD-1 cells, PE-labeled PD-L1-Ig 20 nM final; read-out: Jurkat HPD1_PDL1 IC50

`CCCC[C@@H]1NC(=O)[C@H](Cc2c[nH]c3ccccc23)NC(=O)[C@H](CC(=O)O)NC(=O)[C@H](Cc2ccc(OCC(=O)O)cc2)NC(=O)[C@H](C(C)O)NC(=O)CSC[C@@H](C(=O)N[C@@H](CC(N)=O)C(=O)O)NC(=O)[C@H](CO)NC(=O)[C@H](C(C)C)NC(=O)[C@H](CC(C)C)NC(=O)[C@H](CCN)NC(=O)[C@@H](CC(C)C)NC(=O)[C@H](CCCN)NC(=O)[C@H](C(C)CC)NC(=O)[C@H](Cc2ccc(-c3ccccc3)cc2)NC1=O` (stereo partly drawn) [Compound 2571] ({CH2CO}-[Thr(3ξ)]Y(Carboxymethyl)DW[Nle][Bip][Ile(3ξ)][Orn][dL][Dab]LVSCN-OH; thioether N-14) and `CC(C)C[C@@H]1NC(=O)[C@H](CCN)NC(=O)[C@@H](CC(C)C)NC(=O)[C@H](CCCN)NC(=O)[C@H](CCCNC(N)=O)NC(=O)[C@H](Cc2ccc(-c3ccccc3)cc2)NC(=O)[C@H](C(C)C)NC(=O)[C@H](Cc2c[nH]c3ccccc23)NC(=O)[C@H](CC(=O)O)NC(=O)[C@H](Cc2ccc(C(=O)O)cc2)NC(=O)[C@H](Cc2ccc(OCC(=O)O)cc2)NC(=O)CSC[C@@H](C(=O)N[C@@H](C)C(N)=O)NC(=O)[C@H]([C@@H](C)O)NC(=O)[C@H](C(C)C)NC1=O` [Compound 1252] ({CH2CO}-Y(Carboxymethyl)[Phe(4-COOH)]DWV[Bip][Cit][Orn][dL][Dab]LVTCA-NH2; thioether N-14) are within 1.5-fold of each other in IC50: 26.1 nM for the first, 21.5 nM for the second.

Going from `CC[C@@H]1NC(=O)[C@H](Cc2ccc(-c3ccccc3)cc2)NC(=O)[C@H](C(C)C)NC(=O)[C@H](Cc2cccc(C)c2)NC(=O)[C@H](CC(=O)O)NC(=O)[C@H](Cc2ccc(C(=O)O)cc2)NC(=O)[C@H](Cc2ccncc2)NC(=O)CSC[C@@H](C(=O)N[C@@H](C)C(N)=O)NC(=O)[C@H]([C@@H](C)O)NC(=O)[C@H](C(C)C)NC(=O)[C@H](CC2CCCCC2)NC(=O)[C@H](CCN)NC(=O)[C@@H](CC(C)C)NC(=O)[C@H](CCCN)NC1=O` [Compound 1619] to `Cc1cccc(C[C@@H]2NC(=O)[C@H](CC(=O)O)NC(=O)[C@H](Cc3ccc(OCC(=O)O)cc3)NC(=O)[C@H](Cc3ccncc3)NC(=O)CSC[C@@H](C(=O)N[C@@H](C)C(N)=O)NC(=O)[C@H]([C@@H](C)O)NC(=O)[C@H](C(C)C)NC(=O)[C@H](CC3CCCCC3)NC(=O)[C@H](Cc3cnc[nH]3)NC(=O)[C@@H](CC(C)C)NC(=O)[C@H](CCCN)NC(=O)[C@H](C(C)C)NC(=O)[C@H](Cc3ccc(-c4ccccc4)cc3)NC(=O)[C@H](C(C)C)NC2=O)c1` [Compound 1588], the IC50 rises from 14.6 nM to 25.4 nM (1.7-fold). The first is the more potent here.

First: CC(C)C[C@@H]1NC(=O)[C@H](CC(N)=O)NC(=O)[C@@H](CC(C)C)NC(=O)[C@H](CN)NC(=O)[C@H](C(C)C)NC(=O)[C@H](Cc2ccc(-c3ccccc3)cc2)NC(=O)[C@H](C(C)C)NC(=O)[C@H](Cc2c[nH]c3ccccc23)NC(=O)[C@H](CC(=O)O)NC(=O)[C@H](Cc2ccc(OCC(=O)O)cc2)NC(=O)[C@H](Cc2ccc(OCC(=O)O)cc2)NC(=O)CSC[C@@H](C(=O)NCC(N)=O)NC(=O)[C@H](CO)NC(=O)[C@H](C(C)C)NC1=O [Compound 1292] ({CH2CO}-Y(Carboxymethyl)Y(Carboxymethyl)DWV[Bip]V[Dap][dL]NLVSCG-NH2; thioether N-14)
Second: CCCC[C@@H]1NC(=O)[C@H](CCN)NC(=O)[C@@H](CC(C)C)NC(=O)[C@H](CCCN)NC(=O)[C@H](C(C)C)NC(=O)[C@H](Cc2ccc(-c3ccccc3)cc2)NC(=O)[C@H](C(C)C)NC(=O)[C@H](Cc2c[nH]c3ccccc23)NC(=O)[C@H](CC(=O)O)NC(=O)[C@H](Cc2ccc(O)cc2)NC(=O)[C@H](Cc2ccc(OCC(=O)O)cc2)NC(=O)CSC[C@@H](C(=O)N[C@@H](C)C(N)=O)NC(=O)[C@H]([C@@H](C)O)NC(=O)[C@H](C(C)C)NC1=O [Compound 1170] ({CH2CO}-Y(Carboxymethyl)YDWV[Bip]V[Orn][dL][Dab][Nle]VTCA-NH2; thioether N-14)
The IC50 of the first is 1.5-fold lower: 7.2 nM for the first, 10.8 nM for the second. The first is the more potent here.

First: CC[C@@H](C)[C@@H]1NC(=O)[C@H](Cc2ccc(-c3ccccc3)cc2)NC(=O)[C@H](CC(C)C)NC(=O)[C@H](Cc2cccc(C)c2)NC(=O)[C@H](CC(=O)O)NC(=O)[C@H](Cc2ccc(OCC(=O)O)cc2)NC(=O)[C@H](Cc2ccc(OCC(=O)O)cc2)NC(=O)CSC[C@@H](C(N)=O)NC(=O)[C@H](CO)NC(=O)[C@H](C(C)C)NC(=O)[C@H](CC(C)C)NC(=O)[C@H](CCN)NC(=O)[C@@H](CC(C)C)NC(=O)[C@H](CCCN)NC1=O [Compound 1653] ({CH2CO}-Y(Carboxymethyl)Y(Carboxymethyl)D[Phe(3-Me)]L[Bip][aIle][Orn][dL][Dab]LVSC-NH2; thioether N-14)
Second: CC(C)C[C@H]1NC(=O)[C@H](CCCN)NC(=O)[C@H](CCC(=O)O)NC(=O)[C@H](Cc2ccc(-c3ccccc3)cc2)NC(=O)[C@H](C(C)C)NC(=O)[C@H](Cc2cccc(C(F)(F)F)c2)NC(=O)[C@H](CC(=O)O)NC(=O)[C@H](Cc2ccc(OCC(=O)O)cc2)NC(=O)[C@H](Cc2cccnc2)NC(=O)CSC[C@@H](C(=O)N[C@@H](C)C(N)=O)NC(=O)[C@H]([C@@H](C)O)NC(=O)[C@H](C(C)C)NC(=O)[C@H](CC2CCCCC2)NC(=O)[C@H](CCN)NC1=O [Compound 1502]
The IC50 of the first is 2-fold higher: 33.5 nM for the first, 16.8 nM for the second.

Going from `CC(C)C[C@H]1NC(=O)[C@H](CCCN)NC(=O)[C@H](C(C)C)NC(=O)[C@H](Cc2ccc(-c3ccccc3)cc2)NC(=O)[C@H](C(C)C)NC(=O)[C@H](Cc2c[nH]c3ccccc23)NC(=O)[C@H](CC(=O)O)NC(=O)[C@H](Cc2ccc(O)cc2)NC(=O)[C@H](C(C)O)NC(=O)CSC[C@@H](C(=O)N[C@@H](CC(N)=O)C(N)=O)NC(=O)[C@H](C(C)O)NC(=O)[C@H](C(C)C)NC(=O)[C@H](CC2CCCCC2)NC(=O)[C@H](CCN)NC1=O` (stereo partly drawn) [Compound 2549] ({CH2CO}-[Thr(3ξ)]YDWV[Bip]V[Orn][dL][Dab][Cha]V[Thr(3ξ)]CN-NH2; thioether N-14) to `CC(C)C[C@H]1NC(=O)[C@H](CCCN)NC(=O)[C@H](C(C)C)NC(=O)[C@H](Cc2ccc(-c3ccccc3)cc2)NC(=O)[C@H](C(C)C)NC(=O)[C@H](Cc2c[nH]c3ccccc23)NC(=O)[C@H](CC(=O)O)NC(=O)[C@H](Cc2ccc(O)cc2)NC(=O)[C@H](CC#N)NC(=O)CSC[C@@H](C(=O)N[C@@H](C)C(N)=O)NC(=O)[C@H](C(C)O)NC(=O)[C@H](C(C)C)NC(=O)[C@H](CC2CCCCC2)NC(=O)[C@H](CCN)NC1=O` (stereo partly shown) [Compound 2526], the IC50 rises from 12.5 nM to 54.8 nM (4.4-fold).

First: CC(C)C[C@H]1NC(=O)[C@H](CCCN)NC(=O)[C@H](CN)NC(=O)[C@H](Cc2ccc(-c3ccccc3)cc2)NC(=O)[C@H](C(C)C)NC(=O)[C@H](Cc2c[nH]c3ccccc23)NC(=O)[C@H](CC(=O)O)NC(=O)[C@H](Cc2ccc(OCC(=O)O)cc2)NC(=O)[C@H](CN)NC(=O)CSC[C@@H](C(=O)N[C@@H](C)C(N)=O)NC(=O)[C@H]([C@@H](C)O)NC(=O)[C@H](C(C)C)NC(=O)[C@H](CC2CCCCC2)NC(=O)[C@H](CCN)NC1=O [Compound 1376]
Second: CC(C)C[C@@H]1NC(=O)[C@H](CCN)NC(=O)[C@@H](CC(C)C)NC(=O)[C@H](CN)NC(=O)[C@H](C(C)C)NC(=O)[C@H](Cc2ccc(-c3ccccc3)cc2)NC(=O)[C@H](C(C)C)NC(=O)[C@H](Cc2c[nH]c3ccccc23)NC(=O)[C@H](CC(=O)O)NC(=O)[C@H](Cc2ccc(O)cc2)NC(=O)[C@H](CC(N)=O)NC(=O)CSC[C@@H](C(=O)N[C@@H](C)C(N)=O)NC(=O)[C@H]([C@@H](C)O)NC(=O)[C@H](C(C)C)NC1=O [Compound 1028] ({CH2CO}-NYDWV[Bip]V[Dap][dL][Dab]LVTCA-NH2; thioether N-14)
The IC50 of the first is 2-fold lower: 7.2 nM for the first, 14.3 nM for the second.

First: C#CC[C@H](NC(=O)[C@@H]1CSCC(=O)N[C@@H](CCC)C(=O)N[C@@H](Cc2ccc(OCC(=O)O)cc2)C(=O)N[C@@H](CC(=O)O)C(=O)N[C@@H](Cc2cccc(C)c2)C(=O)N[C@@H](Cc2ccc(OCC(=O)O)cc2)C(=O)N[C@@H](Cc2ccc(-c3ccccc3)cc2)C(=O)N[C@@H](Cc2ccc(OCC(=O)O)cc2)C(=O)N[C@@H](CCCN)C(=O)N[C@H](CC(C)C)C(=O)N[C@@H](CCC)C(=O)N[C@@H](CC2CCCCC2)C(=O)N[C@@H](C(C)C)C(=O)N[C@@H](CCC(=O)O)C(=O)N1)C(=O)O [Compound 2701] ({CH2CO}-[Nva]Y(Carboxymethyl)D[Phe(3-Me)]Y(Carboxymethyl)[Bip]Y(Carboxymethyl)[Orn][dL][Nva][Cha]VEC[Pra]-OH; thioether N-14)
Second: Cc1cccc(C[C@@H]2NC(=O)[C@H](CC(=O)O)NC(=O)[C@H](CCc3ccncc3)NC(=O)[C@H](CN)NC(=O)CSC[C@@H](C(=O)N[C@@H](C)C(N)=O)NC(=O)[C@H]([C@@H](C)O)NC(=O)[C@H](C(C)C)NC(=O)[C@H](CC(C)C)NC(=O)[C@H](CCN)NC(=O)[C@@H](CC(C)C)NC(=O)[C@H](CCCN)NC(=O)[C@H](C(C)C)NC(=O)[C@H](Cc3ccc(-c4ccccc4)cc3)NC(=O)[C@H](C(C)C)NC2=O)c1 [Compound 1253] ({CH2CO}-[Dap][h4Pal]D[Phe(3-Me)]V[Bip]V[Orn][dL][Dab]LVTCA-NH2; thioether N-14)
The IC50 of the first is 24-fold higher: 163 nM for the first, 6.8 nM for the second.
